Data on one compound can be found in publication PMC7238232, “Acamprosate Is a Substrate of the Human Organic Anion Transporter (OAT) 1 without OAT3 Inhibitory Properties: Implications for Renal Acamprosate Secretion and Drug–Drug Interactions” (Pharmaceutics, 2020).

The subject of one assay is HEK293-Flp-In mock cells. As to the kind of experiment: Control uptake studies in HEK293-Flp-In mock cells.
The target of the next assay is T1, OAT3 (Homo sapiens, UniProt Q8TCC7).
T1 sequence (Q8TCC7 1-542): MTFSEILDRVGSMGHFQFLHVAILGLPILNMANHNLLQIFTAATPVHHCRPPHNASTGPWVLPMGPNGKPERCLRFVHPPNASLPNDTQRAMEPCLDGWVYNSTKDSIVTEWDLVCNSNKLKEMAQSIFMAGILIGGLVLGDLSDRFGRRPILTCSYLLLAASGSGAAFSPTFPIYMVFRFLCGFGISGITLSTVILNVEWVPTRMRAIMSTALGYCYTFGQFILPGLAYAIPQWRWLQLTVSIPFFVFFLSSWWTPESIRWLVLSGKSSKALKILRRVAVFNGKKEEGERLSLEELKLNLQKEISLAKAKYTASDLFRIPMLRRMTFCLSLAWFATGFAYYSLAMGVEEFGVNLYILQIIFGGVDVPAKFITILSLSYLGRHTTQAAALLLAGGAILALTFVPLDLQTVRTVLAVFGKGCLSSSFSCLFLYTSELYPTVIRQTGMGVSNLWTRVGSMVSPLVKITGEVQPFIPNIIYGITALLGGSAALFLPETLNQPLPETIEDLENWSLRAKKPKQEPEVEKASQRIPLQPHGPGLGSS
As to the kind of experiment: Acamprosate intracellular uptake in HEK293-Flp-In OAT3 cells (LC/MS-MS). The assay is classed as cell-based. The conditions noted are these: 200 µM acamprosate; 10 min; Lab. 1. As to the method: The experiments were done on cells cultured in 24-well plates in Lab. 1. For the time-dependent uptake, the experiment was initiated by replacing the incubation buffer with 200 µL prewarmed 200 µM solution of acamprosate in uptake buffer. The plates were incubated in an orbital plate shaker at 37 °C and 100 rpm for 5, 15, 30, 45, 60, or 90 min and experiments were stopped by washing with 3 × 500 µL ice-cold buffer. […] The plates were incubated in an orbital plate shaker (Incubating microplate shaker from VWR International AB, Stockholm, Sweden) at 37 °C and 100 rpm for 10 min (time point at which substrate uptake was within the linear range) and experiments were stopped by washing with 3 × 500 µL∙well^−1 ice-cold buffer. The cells were then lysed with 200 µL 50 nM warfarin in 60:40 acetonitrile (ACN):water (IS solution) and mixed thoroughly. The samples were moved to 96-well LC/MS-MS plates. The wells from the uptake experiment were rinsed again with 200 µL IS solution and the resulting volumes were added to the corresponding well on the same 96-well plate. […] The plates were covered with aluminum seals and centrifuged at 3500 rpm and 5 °C for 20 min and the amount of acamprosate in the supernatant was quantified by LC/MS-MS.
Acamprosate was quantified in Lab. […] Quantification was done by multiple reaction monitoring of parent and daughter ions. […]

Method for HEK293-Flp-In mock cells: All uptake experiments were performed on 24- or 96-well plates. Before the experiment initiation, the cells were incubated with either 500 or 200 µL∙well^−1 prewarmed buffer for 10 min at 37 °C in a microplate incubator (VWR International AB, Stockholm, Sweden), without shaking. […] The experiment was stopped by adding 200 µL∙well^−1 of ice-cold buffer and subsequent rinse three times with the same amount of buffer. […] A total of 50 µL of cell lysate from each well was transferred to 96-well Luma plates bottom coated with dry scintillant. Then, 2∙20 µL of each donor and three 50 µL blank samples were applied on the same plate. The dry plates were covered with transparent seals and analyzed using a TopCount NXT Microplate Scintillation and Luminescence Counter (Perkin Elmer, Waltham, MA, USA). The remaining 20 µL cell lysate was neutralized with 20 µL 1M HCl∙well^−1, samples were mixed thoroughly and the total protein content in all the wells was measured using a BCA protein assay kit, microplate method, and a Tecan Safire II fluorometer (Tecan Austria GmbH, Grödig, Austria). […] The total protein content was measured by using a BCA protein assay kit and a FLUOStar Omega fluorescence microplate reader (BMG Labtech, Ortenberg, Germany). The protein assay for the OAT3 and mock cell lines was performed in four independent wells of each cell line, seeded and treated in the same manner as the cells used in the uptake assay. For all the OAT1, OAT3, and mock isotope uptake studies, the radiolabelled tracer accumulation (pmol) in each well was calculated by first determining the activity of the isotope (DPM∙pmol^−1) from the radioactivity (DPM) of the donor sample divided by the theoretical isotope concentration (pmol), then dividing the total radioactivity in the well (DPM) to the specific activity of the isotope (DPM∙pmol^−1).

Regarding `CC(=O)NCCCS(=O)(=O)O` [acamprosate, acetylhomotaurinate], the “effect on uptake of [3H]-E3S in mock cells” value with HEK293-Flp-In mock cells (0.02 µM [3H]-E3S, 200 µM E3S, 300 µM or 0.2–1022 µM probenecid, 10,000 µM acamprosate, Lab. 2) is “did not affect”. The “effect on uptake of [14C]-PAH in mock cells” value in the assay with HEK293-Flp-In mock cells (9.5 µM [14C]-PAH, 200 µM PAH, 300 µM or 0.02–1022 µM probenecid, acamprosate, Lab. 1) is reported as “did not inhibit”. The “saturability of dose-dependent substrate uptake in mock cells” value in the assay with HEK293-Flp-In mock cells (same substrate concentrations as in transfected cells, acamprosate 0.33–3300 µM) is on record as “not saturable”. On OAT3, the “acamprosate uptake in OAT3 expressing cells compared to mock cells” value was “similar”.
